This test has as its target T1, Human ATX protein (Homo sapiens, UniProt Q13822).
T1 construct: made in house
As to the kind of experiment: Autotaxin (ATX) assay, FRET with FS-3 substrate. Conditions: upper bound bins (no greater than 100, 250 or 500 nM); FS-3 2 μM, ATX 1.0 μg/mL. The test is classed as biochemical. A digest of the protocol:
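In-house human ATX (1.0 μg/mL final) was preincubated with compound for 30 min at room temperature in Tris buffer pH 7.4 with NaCl, KCl, CaCl2, MgCl2 and 1 mg/mL fatty acid-free BSA. FS-3 (2 μM final) was added and the plate shaken 2 h at room temperature in the dark. Fluorescence was read at ex 485/em 538 nm.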

`CN1CCN(C(=O)c2cc3n(n2)CCCN(C(=O)OCc2cc(Cl)cc(C(F)(F)F)c2)C3)C(C(F)(F)F)C1` (centres unmarked) [Example 178] showed an IC50 not above 100 nM.
For `CC(O)c1cc2n(n1)CCN(C(=O)OCc1cc(C(F)(F)F)cc(C(F)(F)F)c1)C2` (centres unmarked) [Example 396, 3,5-bis(Trifluoromethyl)benzyl 2-(1-hydroxyethyl)-6,7-dihydropyrazolo[1,5-a]pyrazine-5(4H)-carboxylate] the value was not above 100 nM; for `O=C(OCc1cc(C(F)(F)F)cc(C(F)(F)F)c1)N1CCCn2nc(Br)cc2C1` [Example 280], not above 100 nM; for `CN1CCN(C(=O)c2cc3n(c2)CCCN(C(=O)OCc2cc(Cl)cc(C(F)(F)F)c2)C3)CC1` [Example 277, 3-chloro-5-(trifluoromethyl)benzyl 8-(4-methylpiperazine-1-carbonyl)-4,5-dihydro-1H-pyrrolo[1,2-a][1,4]diazepine-2(3H)-carboxylate], not above 100 nM.
For the compound `CC1c2cc(C(=O)O)nn2CCCN1C(=O)CCc1cc(Cl)cc(Cl)c1` (centres unmarked) [Example 420], the IC50 was not above 500 nM.
Compound `O=C(O)c1cc2n(n1)CCCN(C(=O)OCc1cc(Cl)cc(C(F)(F)F)c1)C2` [Example 65, 5-(((3-Chloro-5-(trifluoromethyl)benzyl)oxy)carbonyl)-5,6,7,8-tetrahydro-4H-pyrazolo[1,5-a][1,4]diazepine-2-carboxylic acid] had a half-maximal inhibitory concentration (IC50) not above 100 nM.
For `O=C(OCc1cc(Cl)cc(Cl)c1)N1CCCn2nc(C(=O)N3CCOCC3)cc2C1` [Example 23, 3,5-Dichlorobenzyl 2-(morpholine-4-carbonyl)-7,8-dihydro-4H-pyrazolo[1,5-a][1,4]diazepine-5(6H)-carboxylate] the value was not above 100 nM.
For `O=C(OCc1cc(C(F)(F)F)cc(C(F)(F)F)c1)N1CCCn2nc(C3CCNCC3)cc2C1` [Example 375, 3,5-bis(trifluoromethyl)benzyl 2-(piperidin-4-yl)-7,8-dihydro-4H-pyrazolo[1,5-a][1,4]diazepine-5(6H)-carboxylate] the value was not above 100 nM; for `CC(c1cc2n(n1)CCCN(C(=O)OCc1cc(C(F)(F)F)cc(C(F)(F)F)c1)C2)N1CCCCC1` (centres unmarked) [Example 148, 3,5-Bis(trifluoromethyl)benzyl 2-(1-(piperidin-1-yl)ethyl)-7,8-dihydro-4H-pyrazolo[1,5-a][1,4]diazepine-5(6H)-carboxylate], not above 100 nM.
For `O=C(OCc1cc(C(F)(F)F)cc(C(F)(F)F)c1)N1CCn2nc(C3CN4CCC[C@H]4CO3)cc2C1` (stereo partly drawn) [Example 255, 3,5-bis(trifluoromethyl)benzyl 2-((8aS)-hexahydro-1H-pyrrolo[2,1-c][1,4]oxazin-3-yl)-6,7-dihydropyrazolo[1,5-a]pyrazine-5(4H)-carboxylate] the value was not above 100 nM.
`CC(c1cc2n(n1)CCN(C(=O)OCc1cc(C(F)(F)F)cc(C(F)(F)F)c1)C2)N1C2CCC1CN(C(=O)OC(C)(C)C)C2` (centres unmarked) [Example 450] showed a concentration for half-maximal inhibition (IC50) not above 100 nM.
For `CN1CCN(C(=O)c2cc3n(n2)CCCN(C(=O)OCc2cc(Cl)cc(C(F)(F)F)c2)C3)C2(CC2)C1` [Example 180] the value was not above 100 nM.
For `O=C(OCc1cc(C(F)(F)F)cc(C(F)(F)F)c1)N1CCn2nc(C(=O)N3CC4CCC(C3)N4)cc2C1` [Example 437] the value was not above 100 nM; for `O=C(OCc1cc(Cl)cc(C(F)(F)F)c1)N1CCCn2nc(C(=O)N3CCN4CCC[C@H]4C3)cc2C1` [Example 211], not above 100 nM; for `CN1C2C=C(c3cc4n(n3)CCCN(C(=O)OCc3cc(C(F)(F)F)cc(C(F)(F)F)c3)C4)CC1CC2` (centres unmarked) [Example 379], not above 100 nM.
For `O=C(OCc1cc(C(F)(F)F)cc(C(F)(F)F)c1)N1CCCn2nc(CN3C4CCCC3CCC4)cc2C1` [Example 293] the value was not above 100 nM; for `O=C(O)C1CC2CCCC(C1)N2C(=O)c1cc2n(n1)CCCN(C(=O)OCc1cc(C(F)(F)F)cc(C(F)(F)F)c1)C2` (centres unmarked) [Example 63, 9-(5-((3,5-Bis(trifluoromethyl)benzyloxy)carbonyl)-5,6,7,8-tetrahydro-4H-pyrazolo[1,5-a][1,4]diazepine-2-carbonyl)-9-aza-bicyclo[3.3.1]nonane-3-carboxylic acid], not above 100 nM.
`CCC1CN(c2cc3n(n2)CCCN(C(=O)OCc2cc(C(F)(F)F)cc(C(F)(F)F)c2)C3)CCN1` (centres unmarked) [Example 341] had an IC50 not above 100 nM.
For `O=C(OCc1cc(Cl)cc(C(F)(F)F)c1)N1CCCn2nc(C(=O)N3C[C@@H]4C[C@H]3CN4)cc2C1` [Example 204] the value was not above 100 nM; for `C#CCCCCNC(=O)c1cc2n(n1)CCCN(C(=O)OCc1cc(C(F)(F)F)cc(C(F)(F)F)c1)C2` [Example 190], not above 100 nM; for `CC(c1cc2n(n1)CCCN(C(=O)OCc1cc(C(F)(F)F)cc(C(F)(F)F)c1)C2)N1CCC(C(=O)O)CC1` (centres unmarked) [Example 149, 1-(1-(5-(((3,5-Bis(trifluoromethyl)benzyl)oxy)carbonyl)-5,6,7,8-tetrahydro-4H-pyrazolo[1,5-a][1,4]diazepin-2-yl)ethyl)piperidine-4-carboxylic acid], not above 500 nM.
For `O=C(OCc1cc(C(F)(F)F)cc(C(F)(F)F)c1)N1CCn2nc(C(=O)N3C4CCCC3CCC4)cc2C1` [Example 487] the value was not above 100 nM.
For `O=C(NC1CCCC1)c1cc2n(n1)CCCN(C(=O)OCc1cc(Cl)cc(Cl)c1)C2` [Example 16, 3,5-Dichlorobenzyl 2-(cyclopentylcarbamoyl)-7,8-dihydro-4H-pyrazolo[1,5-a][1,4]diazepine-5(6H)-carboxylate] the value was not above 100 nM.
As to `CN1CCN(C(=O)c2cc3n(n2)CCCN(C(=O)OCc2cc(Cl)cc(C(F)(F)F)c2)C3)CC1` [Example 216], the IC50 was not above 100 nM.
For `CCC1(CC)CN(C)CCN1C(=O)c1cc2n(n1)CCCN(C(=O)OCc1cc(Cl)cc(C(F)(F)F)c1)C2` [Example 229] the value was not above 100 nM; for `O=C(OCc1cc(C(F)(F)F)cc(C(F)(F)F)c1)N1CCn2nc(C(=O)N3CCC3)cc2C1` [Example 485], not above 100 nM.
For `O=C(OCc1cc(Cl)cc(Cl)c1)N1CCCn2nc(C(=O)N3CCCC3)cc2C1` [Example 18, 3,5-Dichlorobenzyl 2-(pyrrolidine-1-carbonyl)-7,8-dihydro-4H-pyrazolo[1,5-a][1,4]diazepine-5(6H)-carboxylate] the value was not above 100 nM; for `CN1C2CCCC1CN(C(=O)c1cc3n(n1)CCCN(C(=O)OCc1cc(C(F)(F)F)cc(C(F)(F)F)c1)C3)C2` [Example 230], not above 100 nM; for `CN1CCN(S(=O)(=O)c2cc3n(n2)CCCN(C(=O)OCc2cc(C(F)(F)F)cc(C(F)(F)F)c2)C3)CC1` [Example 308], not above 100 nM.
For `CC1CN(C(=O)c2cc3n(n2)CCN(C(=O)OCc2cc(C(F)(F)F)cc(C(F)(F)F)c2)C3)CCN1C(=O)OC(C)(C)C` (centres unmarked) [Example 467] the value was not above 100 nM; for `CS(=O)(=O)NC(=O)c1cc2n(n1)CCCN(C(=O)OCc1cc(C(F)(F)F)cc(C(F)(F)F)c1)C2` [Example 299, 3,5-bis(trifluoromethyl)benzyl 2-((methylsulfonyl)carbamoyl)-7,8-dihydro-4H-pyrazolo[1,5-a][1,4]diazepine-5(6H)-carboxylate], not above 100 nM; for `O=C(OCc1cc(Cl)cc(Cl)c1)N1CCn2cc(C(F)(F)F)nc2C1` [Example 131, 3,5-Dichlorobenzyl 2-(trifluoromethyl)-5,6-dihydroimidazo[1,2-a]pyrazine-7(8H)-carboxylate], not above 500 nM.

For the origin of these results see patent publication US20160039825A1 (BIOGEN MA INC., priority 2013, published 2016).
